pIC50: −log10 of the molar value.
Each compound was assayed against T1, active p38 alpha enzyme (Upstate Biotechnology) (Homo sapiens, UniProt Q16539) (assay: p38α biochemical assay (ATP turnover, luminescent detection, Cambrex PKlight)). Conditions: p38α biochemical assay, Table 1 Biological Activity.
T1 construct: purchased Upstate Biotechnology
T1 sequence (Q16539 whole entry): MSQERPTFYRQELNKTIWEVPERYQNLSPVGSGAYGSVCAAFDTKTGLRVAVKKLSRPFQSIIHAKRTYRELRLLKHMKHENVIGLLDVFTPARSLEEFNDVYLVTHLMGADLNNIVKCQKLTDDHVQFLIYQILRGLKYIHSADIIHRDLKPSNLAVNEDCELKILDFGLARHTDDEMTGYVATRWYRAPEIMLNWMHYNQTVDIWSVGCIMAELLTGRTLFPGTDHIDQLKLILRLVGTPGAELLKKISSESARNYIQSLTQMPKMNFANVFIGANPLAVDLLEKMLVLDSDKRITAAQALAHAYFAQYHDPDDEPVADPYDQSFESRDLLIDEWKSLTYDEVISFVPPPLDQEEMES
Procedure, shortened: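 p38α + MapkapK2 (whole protein substrate) + 1.4 uM ATP final; Tris/MOPS buffer with MgCl2, CaCl2, EGTA, EDTA, glycerol, β-ME, BSA; 2 h at 30C; luminescent detection of remaining ATP.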
`CC(C)NC(=O)c1csc(-c2[nH]c(CN3CCNCC3)nc2-c2ccc(F)cc2)n1` [Example 83, 2-|5-(4-Fluoro-phenyl)-2-piperazin-1-ylmethyl-3H-imidazol-4-yl|-thiazole-4-carboxylic acid isopropylamide] was tested, and the pIC50 was at least 6.00. For `CC(C)NC(=O)c1csc(-c2c(-c3ccc(F)cc3)noc2CNC(=O)C2CN(C(=O)OC(C)(C)C)CCN2)n1` (centres unmarked) [Example 789], the pIC50 was under 6.00. `CC(C)NC(=O)c1csc(-c2oc(CNC(=O)c3cccnc3Cl)nc2-c2ccc(F)cc2)n1` [Example 153] showed a pIC50 of at least 6.00. With `CC(C)NC(=O)c1csc(-c2oc(CNC(=O)Cc3ccccc3O)nc2-c2ccc(F)cc2)n1` [Example 143] the pIC50 was at least 6.00. `CC(C)NC(=O)c1csc(-c2oc(CN3CCN(C(=O)C=O)CC3)nc2-c2ccc(F)cc2)n1` [Example 336] was tested, and the pIC50 was at least 6.00. For `CC(C)NC(=O)c1csc(-c2c(-c3ccc(F)cc3)noc2CNC(=O)c2cc(C(C)C)cc(C(C)C)c2O)n1` [Example 779], the pIC50 was under 6.00. Work on `CC(C)NC(=O)c1csc(-c2c(-c3ccc(F)cc3)noc2CNC(=O)c2ccc(C(F)(F)F)cc2[N+](=O)[O-])n1` [Example 794] yielded a pIC50 of under 6.00. `CC(C)NC(=O)c1csc(-c2oc(CN3CCN(C(=O)c4csc5ccccc45)CC3)nc2-c2ccc(F)cc2)n1` [Example 443] showed a pIC50 of under 6.00. `CC(C)NC(=O)c1csc(-c2oc(CNC(=O)COc3ccccc3C=O)nc2-c2ccc(F)cc2)n1` [Example 212] gave a pIC50 of under 6.00. `COc1cc(C(=O)NCc2onc(-c3ccc(F)cc3)c2-c2nc(C(=O)NC(C)C)cs2)cc(OC)c1OC` [Example 760] gave a pIC50 of under 6.00. In the case of `CC(C)NC(=O)c1csc(-c2oc(CNC(=O)Cc3ccc(O)c(F)c3)nc2-c2ccc(F)cc2)n1` [Example 191], the pIC50 was at least 6.00. `Cc1cccc([N+](=O)[O-])c1C(=O)NCc1nc(-c2ccc(F)cc2)c(-c2nc(C(=O)NC(C)C)cs2)o1` [Example 220] gave a pIC50 of at least 6.00. Work on `CC(C)NC(=O)c1csc(-c2oc(CNC(=O)c3ccccc3)nc2-c2ccc(F)cc2)n1` [Example 111] yielded a pIC50 of under 6.00. For `CC(C)NC(=O)c1csc(-c2c(-c3ccc(F)cc3)noc2CNC(=O)c2ccccc2O)n1` [Example 600], the pIC50 was under 6.00. Work on `CC(C)NC(=O)c1csc(-c2oc(CN3CCN(C(=O)C(NC(=O)OC(C)(C)C)C(C)C)CC3)nc2-c2ccc(F)cc2)n1` (centres unmarked) [Example 535] yielded a pIC50 of under 6.00. In the case of `COc1cc(OC)c(C(=O)NCc2nc(-c3ccc(F)cc3)c(-c3nc(C(=O)NC(C)C)cs3)o2)c(OC)c1` [Example 283], the pIC50 was at least 6.00. `CC(C)NC(=O)c1csc(-c2oc(CN3CCN(C(=O)CCc4nc5ccccc5[nH]4)CC3)nc2-c2ccc(F)cc2)n1` [Example 487] showed a pIC50 of under 6.00. In the case of `CC(C)NC(=O)c1csc(-c2oc(CN3CCN(C(=O)c4cccc([N+](=O)[O-])c4)CC3)nc2-c2ccc(F)cc2)n1` [Example 422], the pIC50 was under 6.00. Work on `CCOC(=O)N1CCC(NCc2onc(-c3ccc(F)cc3)c2-c2nc(C(=O)NC(C)C)cs2)CC1` [Example 31] yielded a pIC50 of under 6.00. For `CC(C)NC(=O)c1csc(-c2c(-c3ccc(F)cc3)noc2CNC(=O)C(NC(=O)OC(C)(C)C)C(C)C)n1` (centres unmarked) [Example 774], the pIC50 was under 6.00. With `Cc1ccc(C(=O)NCc2onc(-c3ccc(F)cc3)c2-c2nc(C(=O)NC(C)C)cs2)cc1F` [Example 624] the pIC50 was under 6.00. Compound `CC(C)NC(=O)c1csc(-c2c(-c3ccc(F)cc3)noc2CNC(=O)c2ccc([N+](=O)[O-])c(O)c2)n1` [Example 707] has a pIC50 of under 6.00. `CC(C)NC(=O)c1csc(-c2oc(CNC(=O)C3Cc4ccccc4CN3C(=O)OC(C)(C)C)nc2-c2ccc(F)cc2)n1` (centres unmarked) [Example 333] gave a pIC50 of under 6.00. Compound `CC(C)NC(=O)c1csc(-c2oc(CN3CCN(C(=O)c4ccnc(Cl)c4)CC3)nc2-c2ccc(F)cc2)n1` [Example 391] has a pIC50 of under 6.00. `CC(=O)c1ccccc1C(=O)NCc1nc(-c2ccc(F)cc2)c(-c2nc(C(=O)NC(C)C)cs2)o1` [Example 170] gave a pIC50 of under 6.00.

Same assay, conditions: p38α kinase; Table 1 Biological Activity
For `COc1ccccc1/C=C/C(=O)N1CCC(c2[nH]nc(-c3ccc(F)cc3)c2-c2nc(C(=O)NC(C)C)cs2)CC1` [Example 919], the pIC50 was under 6.00. With `Cc1nc(-c2ccc(F)cc2)c(-c2nc(C(=O)NCc3cccc(Cl)c3)cs2)s1` [Example 1785] the pIC50 was at least 6.00. Work on `CC(C)NC(=O)c1csc(-c2c(-c3ccc(F)cc3)noc2CN2CCCC(C(N)=O)C2)n1` (centres unmarked) [Example 1547] yielded a pIC50 of under 6.00. With `COCC(C)NC(=O)c1csc(-c2sc(C)nc2-c2ccc(F)cc2)n1` (centres unmarked) [Example 1727] the pIC50 was at least 6.00. For `CCCN(CCC)Cc1onc(-c2ccc(F)cc2)c1-c1nc(C(=O)NC(C)C)cs1` [Example 1528], the pIC50 was under 6.00. Work on `COc1ccc(NC(=O)c2csc(-c3sc(C)nc3-c3ccc(F)cc3)n2)cc1` [Example 1973] yielded a pIC50 of under 6.00. With `CC(C)NC(=O)c1csc(-c2c(-c3ccc(F)cc3)noc2CNCCC#N)n1` [Example 1390] the pIC50 was under 6.00. For `CC(C)NC(=O)c1csc(-c2c(-c3ccc(F)cc3)noc2CNc2ccccc2)n1` [Example 1630], the pIC50 was under 6.00. Work on `CC(C)NC(=O)c1csc(-c2c(-c3ccc(F)cc3)n[nH]c2C2CCN(C(=O)/C=C/c3cccc(O)c3)CC2)n1` [Example 882] yielded a pIC50 of under 6.00. For `CC(C)NC(=O)c1csc(-c2c(-c3ccc(F)cc3)noc2CNC(=O)c2ccccc2C(=O)c2ccc(F)cc2)n1` [Example 798], the pIC50 was under 6.00. Work on `CC(C)NC(=O)c1csc(-c2oc(CNC3CCCCC3C)nc2-c2ccc(F)cc2)n1` (centres unmarked) [Example 1092] yielded a pIC50 of under 6.00. In the case of `CC(=O)Nc1cccc(C(=O)N2CCC(c3[nH]nc(-c4ccc(F)cc4)c3-c3nc(C(=O)NC(C)C)cs3)CC2)c1` [Example 925], the pIC50 was at least 6.00. With `Cc1nc(-c2ccc(F)cc2)c(-c2nc(C(=O)Nc3cc(C(F)(F)F)ccc3C(F)(F)F)cs2)s1` [Example 2022] the pIC50 was under 6.00. With `CC(C)NC(=O)c1csc(-c2oc(CNCc3cccc(C(F)(F)F)c3)nc2-c2ccc(F)cc2)n1` [Example 1167] the pIC50 was under 6.00. Work on `Cc1cccc(NCc2nc(-c3ccc(F)cc3)c(-c3nc(C(=O)NC(C)C)cs3)o2)c1` [Example 1308] yielded a pIC50 of under 6.00. With `Cc1nc(-c2ccc(F)cc2)c(-c2nc(C(=O)N3CCCCC3CO)cs2)s1` (centres unmarked) [Example 1864] the pIC50 was under 6.00. For `Cc1nc(-c2ccc(F)cc2)c(-c2nc(C(=O)N3CCN(c4ccccc4Cl)CC3)cs2)s1` [Example 1952], the pIC50 was under 6.00. Work on `CCOC(=O)N1CCC(NCc2onc(-c3ccc(F)cc3)c2-c2nc(C(=O)NC(C)C)cs2)CC1` [Example 1376] yielded a pIC50 of under 6.00. Work on `CC(C)NC(=O)c1csc(-c2oc(CN3CCSCC3)nc2-c2ccc(F)cc2)n1` [Example 1204] yielded a pIC50 of under 6.00. With `CC(C)NC(=O)c1csc(-c2oc(CNCc3ccccc3Cl)nc2-c2ccc(F)cc2)n1` [Example 1131] the pIC50 was under 6.00. In the case of `CC(C)NC(=O)c1csc(-c2c(-c3ccc(F)cc3)n[nH]c2C2CCN(C(=O)c3ccccc3C(=O)c3ccc(F)cc3)CC2)n1` [Example 1037], the pIC50 was under 6.00. `CCC(C)NCc1nc(-c2ccc(F)cc2)c(-c2nc(C(=O)NC(C)C)cs2)o1` (centres unmarked) [Example 1061] gave a pIC50 of under 6.00. `Cc1nc(-c2ccc(F)cc2)c(-c2nc(C(=O)Nc3ccc(F)cc3)cs2)s1` [Example 1964] gave a pIC50 of under 6.00. For `Cc1nc(-c2ccc(F)cc2)c(-c2nc(C(=O)Nc3ccc(C(F)(F)F)cc3)cs2)s1` [Example 2005], the pIC50 was under 6.00. For `Cc1nc(-c2ccc(F)cc2)c(-c2nc(C(=O)NCc3ccccc3F)cs2)s1` [Example 1760], the pIC50 was at least 6.00. In the case of `CC(C)NC(=O)c1csc(-c2c(-c3ccc(F)cc3)c(=O)[nH]n2C)n1` [Example 2182, 2-|4-(4-Fluoro-phenyl)-2-methyl-5-oxo-2,5-dihydro-1H-pyrazol-3-yl|-thiazole-4-carboxylic acid isopropyl amide], the pIC50 was under 6.00. Compound `Cc1nc(-c2ccc(F)cc2)c(-c2nc(C(N)=O)cs2)o1` [Example 2159, 2-|4-(4-Fluoro-phenyl)-2-methyl-oxazol-5-yl|-thiazole-4-carboxylic acid amide] has a pIC50 of under 6.00. `Cc1nc(-c2ccc(F)cc2)c(-c2nc(C(=O)NCCNC(=O)OC(C)(C)C)cs2)s1` [Example 1808] showed a pIC50 of at least 6.00. Work on `CCCN(C)C(=O)c1csc(-c2sc(C)nc2-c2ccc(F)cc2)n1` [Example 1838] yielded a pIC50 of under 6.00. Work on `O=C(NC1CC1)c1csc(-c2c(-c3ccc(F)cc3)n[nH]c2C2CCNCC2)n1` [Example 2033] yielded a pIC50 of at least 6.00. `Cc1cnc(CNC(=O)c2csc(-c3c(-c4ccc(F)cc4)n[nH]c3C3CCNCC3)n2)cn1` [Example 2079] gave a pIC50 of under 6.00. With `Cc1nc(-c2ccc(F)cc2)c(-c2nc(C(=O)N(CCCO)Cc3ccccn3)cs2)s1` [Example 1896] the pIC50 was under 6.00. `Cc1ccc(NC(=O)c2csc(-c3sc(C)nc3-c3ccc(F)cc3)n2)nc1` [Example 1959] showed a pIC50 of under 6.00. `CC(C)NC(=O)c1csc(-c2c(-c3ccc(F)cc3)noc2CNc2ccc3ncsc3c2)n1` [Example 1674] showed a pIC50 of under 6.00. `CC(C)NC(=O)c1csc(-c2c(-c3ccc(F)cc3)noc2CN2C(C)CCCC2C)n1` (centres unmarked) [Example 1533] was tested, and the pIC50 was under 6.00. In the case of `CC(C)NC(=O)c1csc(-c2c(-c3ccc(F)cc3)noc2CNC(=O)C2CCCN2C(=O)OCc2ccccc2)n1` (centres unmarked) [Example 802], the pIC50 was under 6.00. Work on `Cc1cc(C)c(NCc2onc(-c3ccc(F)cc3)c2-c2nc(C(=O)NC(C)C)cs2)c(C)c1` [Example 1661] yielded a pIC50 of under 6.00. Compound `Cc1nc(-c2ccc(F)cc2)c(-c2nc(C(=O)Nc3ccc(F)cc3C(F)(F)F)cs2)s1` [Example 2013] has a pIC50 of under 6.00. `CC(C)NC(=O)c1csc(-c2c(-c3ccc(F)cc3)noc2CNC(=O)c2cccc(I)c2)n1` [Example 801] showed a pIC50 of under 6.00. `CC(C)NC(=O)c1csc(-c2c(-c3ccc(F)cc3)n[nH]c2C2CCN(C(=O)Cc3ccc4c(c3)OCO4)CC2)n1` [Example 931] was tested, and the pIC50 was under 6.00. In the case of `Cc1ccc(CNCc2onc(-c3ccc(F)cc3)c2-c2nc(C(=O)NC(C)C)cs2)cc1C` [Example 1451], the pIC50 was under 6.00. In the case of `Cc1ccc(CNCc2nc(-c3ccc(F)cc3)c(-c3nc(C(=O)NC(C)C)cs3)o2)cc1C` [Example 1120], the pIC50 was under 6.00. Work on `C#CCN(Cc1ccc(Cl)cc1Cl)Cc1onc(-c2ccc(F)cc2)c1-c1nc(C(=O)NC(C)C)cs1` [Example 1616] yielded a pIC50 of under 6.00.
